These results are taken from patent publication EP2999467B1, “USE OF A COMBINATION OF TWO COMPOUNDS FOR THE TREATMENT AND/OR PREVENTION OF BONE DISORDERS” (Institut National de la Recherche Agronomique (INRA), priority 2013, dated 2014).

Like-named read-outs stand apart in the source and are kept apart here.

In one test the test system is phosphatase alcaline. The experiment in a line: Quantitative RT-PCR, osteoblast differentiation marker: alkaline phosphatase. It counts as cell-based, rats Wistar. The following applies: Rattus norvegicus; for activation at 5 µM: AA+βGP+Fisétine 5µM. An excerpt:
(§1) Les préostéoblastes primaires ont été isolés à partir de la calotte crânienne de rats Wistar nouveaux-nés par digestion enzymatique comme précédemment décrit [Declercq, H., Van den Vreken, N., De Maeyer, E., Verbeeck, R., Schacht, E., De Ridder, L., and Cornelissen, M. (2004). Isolation, proliferation and differentiation of osteoblastic cells to study cell/biomaterial interactions: comparison of different isolation techniques and source. Biomaterials 25, 757-68.]. Les précurseurs d'ostéoclastes RAW264.7 ont été obtenus auprès de l'ATCC (Manassas, VA, USA). Les préostéoblastes et les RAW264.7 ont été cultivés dans du milieu α-MEM (Invitrogen, Carlsbad, CA, USA) supplémenté avec 10% de SVF décomplémenté et de 100 unités/ml de pénicilline-streptomycine.
L'extraction des ARN totaux (cellules et fémurs) a été effectuée en utilisant le réactif TRIzol, la transcription inverse (RT) a été réalisée à l'aide du kit de synthèse d'ADNc Dynamo (Thermo Scientific, Waltham, MA, USA) et l'analyse PCR en temps réel a été réalisée avec le Mastercycler ep Realplex2 (Eppendorf, Hambourg, Allemagne). Toutes les valeurs ont été normalisées par la GAPDH. Les séquences des oligos utilisés sont : ALP F 5'-GGCCAGCTACACCACAACA-3' / ALP R 5'-[…] -3' / OCN F 5'-AGACTCCGGCGCTACCTT -3' / OCN R 5'-[…]-3'/ COL1 F 5'-[…]-3' / COL1 R 5'-[…]-3' / GAPDH F 5'-[…]-3' / GAPDH R 5'-[…]-3'

The test system of another test is RAW264.7. Nature of the test: TRAP staining: RANKL-induced osteoclast differentiation, count of multinucleated TRAP+ cells. In kind it is cell-based.
Text: as §1
Pour la coloration TRAP, 60.000 cellules RAW264.7 ont été ensemencées dans des puits de plaques 12 puits pendant 12 heures puis traitées avec du DMSO/éthanol comme témoin ou de la fisétine (5 µM dans le DMSO) ou du DHA (50µM dans l'éthanol) ou la combinaison des deux (Fisétine 5 µM et DHA 50 µM) pendant 3 heures. Les cellules ont ensuite été induites à se différencier en présence de RANKL (50 ng/ml) avec du DMSO/éthanol ou de la fisétine (5 µM) ou du DHA (50 µM) ou la combinaison des deux (Fisétine 5 µM et DHA 50 µM) durant 4 jours avec un changement de milieux après 2 jours. De la BSA délipidée et sans endotoxines a été utilisée pour solubiliser le DHA avec un rapport 1/5 (BSA/DHA).
La coloration TRAP a été réalisée en utilisant le kit « leukocyte acid phosphatase » (Sigma-Aldrich) selon les recommandations du fournisseur après fixation des cellules. Les cellules TRAP+ multinucléées ont ensuite été comptées.

The subject of test [1] is préostéoblastes primaires. Nature of the test: Mineralisation test (alizarin red staining of mineralised nodules). The settings on record: Rattus norvegicus, 408 h, 17 days of culture, read-out: minéralisation (nodules minéralisés) par rapport à la condition « AA+βGP seuls ». In kind it is cell-based, rats Wistar.
Text: as §1
Les préostéoblastes primaires ont été ensemencés à 1,5 * 10^5 cellules par puit dans des plaques 12 puits traitées au collagène. Trente-six heures plus tard, les cellules ont été prétraitées avec du DMSO comme témoin ou de la fisétine (1 à 5 µM) pendant 12 heures, puis induites à se différentier avec 25 µg/ml d'acide ascorbique et 5 mM de bêta-glycérophosphate en présence de DMSO ou de fisétine (1 à 5 µM). Après 17 jours de culture avec un changement des milieux tous les 2 jours, les cellules ont été fixées avec de l'éthanol à 70% et les dépôts de calcium ont été colorés avec une solution à 40 mM d'alizarine rouge (pH 4,2). La zone et l'intensité des nodules ont été quantifiées en utilisant le logiciel ImageJ (http://rsb.info.nih.gov/ij/).

For orientation: inhibition means the change of the read-out against control, counted positive when it falls. Take `O=c1c(O)c(-c2ccc(O)c(O)c2)oc2cc(O)ccc12` [Fisétine, 3,3',4',7-tétrahydroxyflavone]: the activation at 1 µM with phosphatase alcaline (168 h, AA+βGP+Fisétine 1 µM, J7, read-out: expression de la phosphatase alcaline par rapport à la condition « AA+βGP seuls ») amounted to 84%; with phosphatase alcaline (336 h, AA+βGP+Fisétine 1µM, J14, read-out: expression de la phosphatase alcaline par rapport à la condition « AA+βGP seuls »), 37%; in test [1] (AA+βGP+Fisétine 1µM), 62%. For the same molecule, the activation at 5 µM in the test with phosphatase alcaline (168 h, J7, read-out: expression de la phosphatase alcaline par rapport à la condition « AA+βGP seuls ») stood at 146%; in the test on phosphatase alcaline (336 h, J14, read-out: expression de la phosphatase alcaline par rapport à la condition « AA+βGP seuls ») it was 88%; in test [1] (AA+βGP+Fisétine 5µM), 169%. For the same molecule, in the test with RAW264.7 (Mus musculus, RAW264.7, 96 h, Fisétine 5µM, RANKL 50 ng/ml, 4 days, vs RANKL condition, read-out: inhibition de l'induction par RANKL de la formation de cellules multinucléées TRAP+ (ostéoclastes)), the inhibition at 5 µM was 45%. Moreover, in the test on RAW264.7 (condition RANKL+Fisétine (5µM), RANKL alone 735+/-251), the “ostéoclastes/cm^2” value was 404+/-148 ostéoclastes/cm^2. For the same molecule, in test [1] (AA+βGP+Fisétine 2,5µM), the activation at 2.5 µM came out at 105%.
